Laboratory results taken from PubChem BioAssay (NCI).
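A five-concentration, 48-hour dose response in 96-well plates underlies each endpoint, interpolated linearly between surrounding concentrations. TGI: total growth inhibition.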

Experiments:
Test in all cases: NCI anticancer screen, dose series, 48 h
[1] = tested on: 786-0 renal
[2] = tested on: A498 renal
[3] = tested on: A549 NSCLC
[4] = tested on: ACHN renal
[5] = tested on: CAKI-1 renal
[6] = tested on: COLO 205 colon
[7] = tested on: DU-145 prostate
[8] = tested on: EKVX NSCLC
[9] = tested on: HCC-2998 colon
[10] = tested on: HCT-116 colon
[11] = tested on: HCT-15 colon
[12] = tested on: HL-60(TB) leukemia
[13] = tested on: HOP-62 NSCLC
[14] = tested on: HOP-92 NSCLC
[15] = tested on: HS 578T breast
[16] = tested on: HT29 colon
[17] = tested on: IGROV1 ovarian
[18] = tested on: K-562 leukemia
[19] = tested on: KM12 colon
[20] = tested on: LOX IMVI melanoma
[21] = tested on: M14 melanoma
[22] = tested on: MALME-3M melanoma
[23] = tested on: MCF7 breast
[24] = tested on: MDA-MB-231 breast
[25] = tested on: MDA-MB-435
[26] = tested on: MDA-N
[27] = tested on: MOLT-4 leukemia
[28] = tested on: NCI-H226 lung
[29] = tested on: NCI-H23 lung
[30] = tested on: NCI-H460 lung
[31] = tested on: NCI/ADR-RES ovarian
[32] = tested on: OVCAR-3 ovarian
[33] = tested on: OVCAR-4 ovarian
[34] = tested on: OVCAR-5 ovarian
[35] = tested on: OVCAR-8 ovarian
[36] = tested on: PC-3 prostate
[37] = tested on: RPMI-8226 leukemia
[38] = tested on: RXF 393 renal
[39] = tested on: SF-268 CNS
[40] = tested on: SF-295 CNS
[41] = tested on: SF-539 CNS
[42] = tested on: SK-MEL-2 melanoma
[43] = tested on: SK-MEL-28 melanoma
[44] = tested on: SK-OV-3 ovarian
[45] = tested on: SN12C renal
[46] = tested on: SNB-19 CNS
[47] = tested on: SNB-75 CNS
[48] = tested on: SR leukemia
[49] = tested on: SW-620 colon
[50] = tested on: T-47D breast
[51] = tested on: TK-10 renal
[52] = tested on: U251 CNS
[53] = tested on: UACC-257 melanoma
[54] = tested on: UACC-62 melanoma
[55] = tested on: UO-31 renal
[56] = tested on: CCRF-CEM leukemia
[57] = tested on: NCI-H522 lung
[58] = tested on: SK-MEL-5 melanoma

CSC(Cc1ccc2c(c1)Sc1ccccc1O2)=[N+]1CCOCC1 showed a TGI [1] greater than 100 µM, a TGI [2] greater than 100 µM and a TGI [3] greater than 100 µM. The TGI [4] was greater than 100 µM, the TGI [5] was greater than 100 µM and the TGI [6] was greater than 100 µM. The TGI [7] was greater than 100 µM, the TGI [8] was greater than 100 µM and the TGI [9] was greater than 100 µM. For the same molecule, the TGI [10] was greater than 100 µM, the TGI [11] was greater than 100 µM and the TGI [12] was greater than 100 µM. The TGI [13] was greater than 100 µM, the TGI [14] was greater than 100 µM and the TGI [15] was 86.6 µM. It also gave a TGI [16] greater than 100 µM, a TGI [17] greater than 100 µM and a TGI [18] greater than 100 µM. It also gave a TGI [19] greater than 100 µM, a TGI [20] greater than 100 µM and a TGI [21] greater than 100 µM. The TGI [22] was 90.9 µM, the TGI [23] was greater than 100 µM and the TGI [24] was greater than 100 µM. It also gave a TGI [25] greater than 100 µM, a TGI [26] greater than 100 µM and a TGI [27] greater than 100 µM. For the same molecule, the TGI [28] was greater than 100 µM, the TGI [29] was greater than 100 µM and the TGI [30] was greater than 100 µM. For the same molecule, the TGI [31] was greater than 100 µM, the TGI [32] was greater than 100 µM and the TGI [33] was greater than 100 µM. For the same molecule, the TGI [34] was greater than 100 µM, the TGI [35] was greater than 100 µM and the TGI [36] was greater than 100 µM. It also gave a TGI [37] greater than 100 µM, a TGI [38] greater than 100 µM and a TGI [39] greater than 100 µM. The TGI [40] was greater than 100 µM, the TGI [41] was greater than 100 µM and the TGI [42] was greater than 100 µM. It also gave a TGI [43] greater than 100 µM, a TGI [44] greater than 100 µM and a TGI [45] greater than 100 µM. For the same molecule, the TGI [46] was greater than 100 µM, the TGI [47] was greater than 100 µM and the TGI [48] was 11.7 µM. For the same molecule, the TGI [49] was greater than 100 µM, the TGI [50] was greater than 100 µM and the TGI [51] was greater than 100 µM. For the same molecule, the TGI [52] was greater than 100 µM, the TGI [53] was greater than 100 µM and the TGI [54] was greater than 100 µM. The TGI [55] was greater than 100 µM.
For CC1=C2C(=O)c3ccccc3C(=O)[C@H]2C[C@@H](N2CCCC2=O)O1, the TGI [1] was 65.5 µM, the TGI [2] was greater than 100 µM and the TGI [3] was greater than 100 µM. For the same molecule, the TGI [4] was greater than 100 µM, the TGI [5] was greater than 100 µM and the TGI [56] was 81.8 µM. It also gave a TGI [6] greater than 100 µM, a TGI [7] of 54.7 µM and a TGI [8] greater than 100 µM. It also gave a TGI [9] greater than 100 µM, a TGI [11] greater than 100 µM and a TGI [12] greater than 100 µM. The TGI [13] was greater than 100 µM, the TGI [14] was 61.7 µM and the TGI [15] was greater than 100 µM. The TGI [16] was greater than 100 µM, the TGI [17] was greater than 100 µM and the TGI [18] was greater than 100 µM. It also gave a TGI [19] greater than 100 µM, a TGI [20] of 37.8 µM and a TGI [21] of 34.9 µM. For the same molecule, the TGI [22] was 31.8 µM, the TGI [23] was 29.9 µM and the TGI [24] was greater than 100 µM. It also gave a TGI [25] of 33.1 µM, a TGI [26] of 30 µM and a TGI [27] greater than 100 µM. It also gave a TGI [29] of 57.1 µM, a TGI [30] greater than 100 µM and a TGI [57] greater than 100 µM. It also gave a TGI [31] of 97 µM, a TGI [32] of 63.9 µM and a TGI [33] of 38.2 µM. The TGI [34] was 42.5 µM, the TGI [35] was greater than 100 µM and the TGI [36] was greater than 100 µM. For the same molecule, the TGI [37] was 49.5 µM, the TGI [38] was 45.3 µM and the TGI [39] was greater than 100 µM. It also gave a TGI [40] greater than 100 µM, a TGI [41] of 49.1 µM and a TGI [42] greater than 100 µM. It also gave a TGI [43] greater than 100 µM, a TGI [58] of 32.7 µM and a TGI [44] greater than 100 µM. It also gave a TGI [45] greater than 100 µM, a TGI [46] greater than 100 µM and a TGI [47] of 61 µM. It also gave a TGI [48] of 87.7 µM, a TGI [49] of 66.9 µM and a TGI [50] of 53.5 µM. It also gave a TGI [51] greater than 100 µM, a TGI [52] of 76.4 µM and a TGI [53] greater than 100 µM. It also gave a TGI [54] greater than 100 µM and a TGI [55] greater than 100 µM.
Molecule O=C(Nc1ccc(Cl)cc1)c1cc2c(cc1Cl)Sc1nccn1S2(=O)=O has a TGI [1] greater than 100 µM, a TGI [2] greater than 100 µM and a TGI [3] greater than 100 µM. It also gave a TGI [4] greater than 100 µM, a TGI [5] greater than 100 µM and a TGI [56] greater than 100 µM. It also gave a TGI [6] greater than 100 µM, a TGI [7] greater than 100 µM and a TGI [8] greater than 100 µM. For the same molecule, the TGI [9] was greater than 100 µM, the TGI [10] was greater than 100 µM and the TGI [11] was greater than 100 µM. The TGI [13] was greater than 100 µM, the TGI [15] was 97.4 µM and the TGI [16] was greater than 100 µM. The TGI [17] was greater than 100 µM, the TGI [18] was greater than 100 µM and the TGI [19] was greater than 100 µM. The TGI [20] was greater than 100 µM, the TGI [21] was greater than 100 µM and the TGI [22] was greater than 100 µM. The TGI [23] was greater than 100 µM, the TGI [24] was greater than 100 µM and the TGI [25] was greater than 100 µM. For the same molecule, the TGI [26] was greater than 100 µM, the TGI [27] was greater than 100 µM and the TGI [28] was greater than 100 µM. The TGI [30] was greater than 100 µM, the TGI [57] was greater than 100 µM and the TGI [31] was greater than 100 µM. It also gave a TGI [32] greater than 100 µM, a TGI [33] greater than 100 µM and a TGI [34] greater than 100 µM. The TGI [35] was greater than 100 µM, the TGI [36] was greater than 100 µM and the TGI [38] was greater than 100 µM. For the same molecule, the TGI [39] was greater than 100 µM, the TGI [40] was greater than 100 µM and the TGI [41] was greater than 100 µM. It also gave a TGI [42] greater than 100 µM, a TGI [43] greater than 100 µM and a TGI [58] greater than 100 µM. The TGI [44] was greater than 100 µM, the TGI [45] was greater than 100 µM and the TGI [46] was greater than 100 µM. The TGI [47] was 25.2 µM, the TGI [48] was greater than 100 µM and the TGI [49] was greater than 100 µM. For the same molecule, the TGI [50] was greater than 100 µM and the TGI [52] was 39.6 µM.
